Results published in US12162843B2, “High-purity thermostable crystal form of substituted 3-isoxazolidinone compound, preparation method therefor and application thereof” (ZHEJIANG ZHUJI UNITED CHEMICALS CO., LTD., priority 2019, dated 2024).

Assay: Stability experiment of the orthorhombic crystal (PXRD before and after storage)
Assay type: physicochemical
Settings: high-temperature (60±2° C.) oven, 90±5% humidity, 4500±5001 ux light intensity, 10 days, samples on 5th and 10th days
Experimental: A further object of the application is to investigate stability of the orthorhombic crystal of the 2-[(2,4-dichlorophenyl)methyl]-4,4-dimethyl-3-isoxazolidinone compound (Formula I). The orthorhombic crystal is stored in a high-temperature (60±2° C.) oven, in a 90±5% humidity condition, and under 4500±5001 ux light intensity for 10 days, respectively, during which samples are collected on the 5th and 10th days for a PXRD analysis.
A PXRD diffractometer (X′Pert PRO, PNAlytical, Netherlands) is employed to collect the following specific data: Cu anode=40 kV, 150 mA, 2θ scanning range=0°˜45°, scanning speed=8°/min, step size=0.02°, divergence slit (DS)=1°, anti-scattering slit=(SS) 1°, and receiving slit (RS)=0.15 mm.
The crystals of the 2-[(2,4-dichlorophenyl)methyl]-4,4-dimethyl-3-isoxazolidinone compound (Formula I) obtained in embodiments 3, 4, 5, and 6 are respectively placed in a high-temperature (60±2° C.) oven, in a 90±5% humidity condition, and under 4500±5001 ux light intensity for 10 days. Samples are collected on the 5th and 10th days for the PXRD analysis.

For `CC1(C)CON(Cc2ccc(Cl)cc2Cl)C1=O` [orthorhombic crystal, 2-[(2,4-dichlorophenyl)methyl]-4,4-dimethyl-3-isoxazolidinone], the “stability of the crystal form (PXRD before and after storage)” value was “stable crystal form under high temperature, humidity and light intensity conditions” and the “stability of the crystal form (PXRD before and after storage)” value (listed as orthorhombic crystals) was “remain stable under high temperature, high humidity, and light intensity”.
